# Assay results: ChEMBL document CHEMBL1201862, “PubChem BioAssay data set” (2004)
# Calls of active or inactive are those of the source.
# Experiments:
# [1] = biological target: T1, Fructose-bisphosphate aldolase (Mycobacterium tuberculosis, UniProt P9WQA3); assay: Fluorescence-based biochemical high throughput dose response assay for inhibitors of the fructose-bisphosphate aldolase (FBA) of M. tuberculosis.; format: functional
# T1 sequence (P9WQA3 whole entry): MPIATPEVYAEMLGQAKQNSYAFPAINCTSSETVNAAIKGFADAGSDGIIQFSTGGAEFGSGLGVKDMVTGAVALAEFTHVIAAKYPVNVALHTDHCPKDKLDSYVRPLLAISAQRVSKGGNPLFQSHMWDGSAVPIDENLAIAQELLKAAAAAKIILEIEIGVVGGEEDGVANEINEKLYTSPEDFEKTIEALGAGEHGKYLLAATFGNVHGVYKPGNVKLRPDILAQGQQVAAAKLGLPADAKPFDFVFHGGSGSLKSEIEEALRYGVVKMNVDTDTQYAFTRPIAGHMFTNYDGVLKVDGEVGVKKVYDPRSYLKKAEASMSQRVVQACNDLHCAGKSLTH
# [2] = inhibitors of intracellular T. cruzi replication, confirmation, NIH3T3 host cells, beta-gal luminescence (AID 2044); format: functional, cell-based;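 also: intracellular parasites grown in NIH/3T3 mouse fibroblasts as host cells; luminescent beta-galactosidase reporter signal from transgenic T. cruzi replicating inside host cells; inhibitors lower the luminescence signal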
# [3] = cytotoxicity in HPDE-C7 cells, cell-based, fluorescence, HTS (AID 430); format: functional; conditions: Homo sapiens
# [4] = cytotoxicity in KRAS-transformed pancreatic duct cells, primary screen, cell-based, fluorescence, HTS (AID 431); format: functional; conditions: Homo sapiens;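 also: cell line used: HPDE-C7K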
# [5] = cytotoxicity toward NIH3T3 fibroblasts, dose response, counter-screen, cell-based, ATP luminescence, mouse fibroblasts (AID 2010); format: functional;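 also: cells exposed to compound for about 90 hours before reading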
# [6] = HepG2 cell cytotoxicity, dose response, cytotoxicity control, ATP luminescence, cherry-pick, activator set 2 (AID 1053143); format: functional, cell-based
# Major prion protein = Major prion protein (Homo sapiens, UniProt P04156); format: functional, cell-based
# cells [7] = assay: cells
# [8] = human group III sPLA2 inhibitors, dose response, biochemical, QFRET, IC50 (AID 743457);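 also: green fluorescence rise as the enzyme cleaves BODIPY PC-A2 in liposomes; potency for inhibition of the enzyme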
# [9] = biological target: Protein-tyrosine kinase 2-beta (Homo sapiens, UniProt Q14289);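 also: potency of inhibitors of PYK2 kinase phosphorylation of poly-GT substrate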
# Estrogen receptor beta = Estrogen receptor beta (Homo sapiens, UniProt Q92731);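 also: recombinant ER-beta bound to coactivator SRC1 peptide in presence of estradiol agonist; inhibitors block coactivator peptide binding and lower the FRET signal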
# cells [10] = format: functional, cell-based
# [11] = biological target: T2, Nuclear receptor subfamily 0 group B member 1 (Homo sapiens, UniProt P51843); format: functional, cell-based;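 also: HEK293T cells transfected with SF-1 and DAX-1 plus StAR promoter luciferase reporter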
# T2 sequence (P51843 whole entry): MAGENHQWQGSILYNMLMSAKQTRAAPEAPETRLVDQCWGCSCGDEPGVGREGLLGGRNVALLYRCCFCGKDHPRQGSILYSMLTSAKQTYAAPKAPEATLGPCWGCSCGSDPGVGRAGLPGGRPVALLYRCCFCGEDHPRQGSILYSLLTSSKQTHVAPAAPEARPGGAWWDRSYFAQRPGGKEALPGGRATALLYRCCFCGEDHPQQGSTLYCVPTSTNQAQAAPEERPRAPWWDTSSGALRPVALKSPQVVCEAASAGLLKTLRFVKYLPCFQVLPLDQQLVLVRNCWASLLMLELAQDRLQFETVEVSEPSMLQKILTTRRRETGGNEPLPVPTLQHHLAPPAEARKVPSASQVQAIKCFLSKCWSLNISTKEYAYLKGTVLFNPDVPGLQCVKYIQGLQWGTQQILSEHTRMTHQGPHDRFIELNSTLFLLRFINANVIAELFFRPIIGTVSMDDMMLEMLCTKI
# cells [12] = format: functional, cell-based; remark: listed apart in the source
# [13] = biological target: T3, Trace amine-associated receptor 1 (Homo sapiens, UniProt Q96RJ0); assay: Counterscreen for agonists of the human trace amine associated receptor 1 (hTAAR1): Fluorescence-based cell-based high throughput dose response assay to identify hTAAR1 agonist that also desensitize TAAR1 receptor response.; format: functional
# T3 sequence (Q96RJ0 whole entry): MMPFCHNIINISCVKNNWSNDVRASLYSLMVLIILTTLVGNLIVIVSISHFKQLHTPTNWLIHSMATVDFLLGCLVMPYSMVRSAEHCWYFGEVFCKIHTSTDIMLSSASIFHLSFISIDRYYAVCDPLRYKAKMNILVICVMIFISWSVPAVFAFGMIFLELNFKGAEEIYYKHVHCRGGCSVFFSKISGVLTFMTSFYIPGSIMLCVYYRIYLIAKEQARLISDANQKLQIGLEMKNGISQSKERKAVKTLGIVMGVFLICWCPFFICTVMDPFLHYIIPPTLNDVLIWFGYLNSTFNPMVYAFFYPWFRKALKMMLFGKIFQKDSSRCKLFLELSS
# cells [14] = format: functional, cell-based; remark: listed apart in the source
# [15] = biological target: T3, Trace amine-associated receptor 1; assay: Fluorescence-based cell-based high throughput dose response assay to identify agonists of the human trace amine associated receptor 1 (TAAR1).; format: functional
# [16] = P. falciparum Dd2 growth inhibitors, dose response, SYBR Green, cherry-picked samples (AID 1159567); format: functional, cell-based
# [17] = HepG2 cell cytotoxicity, dose response, cytotoxicity control, cherry-picked samples (AID 1159577); format: functional, cell-based
structure (smiles),measurement,setting,value
CCOc1ccc2oc(C(=O)OCC(=O)NC3CCCC3)c(C)c2c1,IC50,[1],2.59 µM (active)
c1ccc(N2CCN(c3nc(NCc4ccco4)c4ccccc4n3)CC2)cc1,EC50,[2],2.3 µM (active)
same,EC50,[3],11 µM (active)
same,EC50,[4],10.8 µM (active)
same,EC50,[5],> 60 µM (not active)
C(=C\c1ccco1)/c1nc2ccccc2[nH]1,AC50,[6],26 µM (active)
N#Cc1nc(-c2cccs2)oc1N1CCN(Cc2ccccc2)CC1,IC50,[1],0.849 µM (active)
CC(=O)N1c2ccc(S(=O)(=O)N3CCCC(C(=O)Nc4cc(C)cc(C)c4)C3)cc2CC1C (configuration not stated),IC50,Major prion protein,10.4 µM (inactive)
same,IC50,cells [7],> 138 µM (inactive)
CC1=CC(C)(C)N=C(S)N1c1cccc2ccccc12,IC50,[8],> 122 µM (inactive)
CCc1ccc2nc(SCC(=O)N(CC)CC)c(C#N)cc2c1,IC50,[9],> 69.5 µM (not active)
O=S(=O)(O)c1nc2ccccc2n1Cc1ccccc1,IC50,Estrogen receptor beta,> 50 µM (not active)
COc1ccc(C(=O)COc2ccc(C)cc2NC(C)=O)cc1,AC50,[6],> 52 µM (inactive)
O=C(NCC1(N2CCCCC2)CCCCC1)c1cccc(S(=O)(=O)Nc2ccc(F)cc2)c1,IC50,cells [10],> 67.5 µM (inactive)
same,IC50,[11],> 67.5 µM (inactive)
COc1cccc(C(=O)N[C@H](C(=O)N2CCC[C@H]2C(=O)NCCc2ccccc2Cl)c2ccccc2)c1,IC50,cells [12],> 29.9 µM (inactive)
same,IC50,[13],7.36 µM (active)
same,EC50,cells [14],> 29.9 µM (inactive)
same,EC50,[15],6.46 µM (active)
N#C[C@@H]1[C@H](c2ccc(C#CCC3CCCC3)cc2)[C@H](CO)N1C(=O)c1ccccn1,AC50,[16],3.37 µM (active)
same,AC50,[17],26 µM (active)
CCCNC(=O)N1CC2(CCN(S(=O)(=O)c3ccc(OC)cc3)CC2)c2c(n(C)c3cc(OC)ccc23)[C@@H]1CO,AC50,[16],3.11 µM (active)
same,AC50,[17],> 39 µM (inactive)
c1ccc(CN(CC2=NCCN2)c2ccccc2)cc1 [ANTAZOLINE PHOSPHATE],IC50,cells [12],> 29.9 µM (inactive)
same,IC50,[13],> 29.9 µM (inactive)
same,EC50,cells [14],> 29.9 µM (inactive)
same,EC50,[15],> 9.97 µM (active)
